Experimental data as given in patent US8822542B2, “Isoketal scavengers and mitigation of disorders involving oxidative injury” (Vanderbilt University, priority 2005, dated 2014).

How the values were obtained:
[1] = tested on: F2-IsoPs esterified in the kidney; test: Galactosamine treated rats (hepatorenal syndrome model), F2-IsoPs esterified in the kidney; type: in vivo, rat; details: 1 g/L drinking water
From the text: Another antioxidant of the present invention is lipoic acid. […] Dihydrolipoic acid is a dithiol. As mentioned previously, thiols reduce the endoperoxide intermediates in the IsoP pathway in vivo to F2-IsoPs. Reducing the endoperoxides concomitantly therefore reduces the formation of endoperoxide rearrangement products, one of which is the IsoKs (FIG. 28). Therefore, mechanistically lipoic acid is an antioxidant to test in animal models of AD. It is also an antioxidant to test because it is available over the counter for human use.

[2] = tested on: aged SAMP mice; details: mouse, in vivo; cited from earlier work
[3] = molecular target: mutant Na+ channel (F1760A) (Homo sapiens, UniProt Q14524, F1760A); test: Whole-cell Na current recording, F1760A mutant Na+ channel; type: cell-based; details: flecainide 10 μM, IsoK 10 μM
Procedure: A. Use-dependent flecainide block was examined using the protocol shown. A train of 500 depolarizing pulses with 10 msec duration at −20 mV were applied at a frequency of 5 Hz. Currents are plotted from every twentieth pulse. Upper panel represents the current in the presence of flecainide (1 μM). Lower panel represents INa in the presence of flecainide and IsoK (10 μM). B. Depolarization-dependent effects are summarized as a function of the pulse number. All current amplitudes are normalized to that of the first depolarization and every tenth pulse is plotted. […] For these experiments flecainide concentration was increased to 10 μM.
Where indicated, cells were co-transfected with an equimolar ratio of Na channel human β1 subunit. cDNAs were transiently transfected into HEK-293 cells using lipofectamine (GIBCO-BRL, Gaithersburg, Md.), and were cultured in MEM medium supplemented with 10% fetal bovine serum and 1% pen-strep in a 5% CO2 incubator at 37° C. for 1 to 4 days.
The effects of IsoK were tested using the same protocol as FIG. 39A. In this experiment, the concentration of flecainide was increased to 10 μM to exaggerate use-dependence.

[4] = tested on: patients convalescing from myocardial infarction; details: in vivo; cited from earlier work
[5] = molecular target: human cardiac Na channel (hH1, or SCN5A) (Homo sapiens, UniProt Q14524); test: Whole-cell Na current recording, wild-type hH1 expressed in HEK-293 cells; details: for P500/P1 (use-dependence): 5 Hz, 500 pulses; for V1/2 voltage-dependence of inactivation (availability): HEK-293, t-BHP 1 mM, Iso-K 10 μM
[6] = molecular target: native Na+ channels in HL-1 cells (Mus musculus, UniProt Q9JJV9); details: for Na channel availability: HL-1, preincubation; for V1/2 availability of native Na+ channels: HL-1, t-BHP 2 mM, Iso-K 10 μM
[7] = tested on: HEK-293 cells; test: Lipid peroxidation products in HEK 293 cells treated with t-BHP; type: cell-based; details: exposure of HEK cells
Procedure: Synthesis and analysis of reactive products of lipid peroxidation: E2-isoketal was synthesized as previously described. The present inventors used mass spectrometry to analyze F2-isoprostanes formed following treatment of HEK 293 cells with t-BHP. For this assay, HEK-293 cells (1×10^6) were treated for 30 minutes at room temperature with buffer containing 100 μM t-BHP, or 100 μM t-BHP and 200 μM FeCl2. Total (free and esterified) F2-isoprostanes (F2-IsoPs) esterified in cellular lipids were then quantified by a highly accurate GC/NICI/MS assay as described previously.

[8] = tested on: recombinant human tau; test: PHF-tau formation, dot blot with Alz50; type: biochemical; details: equimolar IsoK and tau, within 2 hrs
Procedure: Synthetic IsoK to equimolar amounts of recombinant human tau was added and the amount of PHF-tau formation by dot blot analysis was determined with the monoclonal antibody Alz50 (a gift from Dr. Peter Davis). Alz50 recognizes an epitope unique to PHF-tau. […] (FIG. 33).

[9] = tested on: proteasome; test: Proteasome inhibition in P19 neuroglial cultures; type: cell-based
From the text: (§1) Because inhibitors of proteasome function induce neuronal death, the present inventors examined the toxicity of IsoKs.

[10] = tested on: proteasome chymotrypsin-like activity; test: Inhibition of chymotrypsin-like activity in RAW cell lysates; type: biochemical
From the text: When the mechanism of inhibition id analyzed, both competitive and non-competitive mechanism are found. Therefore, in addition to adducted proteins inhibiting the proteasome, IsoKs may cause inhibition by directly adducting to the proteasome itself, or to proteins that regulate proteasome activity.

[11] = molecular target: ovalbumin (OVA) (Gallus gallus, UniProt P01012); test: Protein cross-linking after incubation with ovalbumin; type: biochemical; details: 10 molar equivalents, about 4 hours
From the text: The above findings explained why repeated attempts in the past to detect free IsoKs during oxidation of biological systems in vitro, e.g. microsomes, and in animal models of oxidant injury in vivo were unsuccessful because they are rapidly sequestered as protein adducts. Therefore, the present inventors undertook to determine the identity of IsoK lysyl adducts as a basis for development of methodology to detect IsoK and NeuroK adducts in biological tissues in their adducted form. […] Reversible Schiff base adducts were also identified. Schiff base adducts are formed rapidly and then decline over time, whereas lactam adducts accumulate slowly over time. Lysyl protein adducts of IsoKs and NeuroKs are analyzed by LC/MS/MS following enzymatic digestion of proteins to individual amino acids. Enzymatic digestion of proteins is necessary because the adducts degrade during acid hydrolysis. However, this analysis is further complicated by the proclivity of IsoKs and NKs to induce protein crosslinking, which is resistant to hydrolysis. […] This is a dramatic example of the differential effects of IsoKs/NKs and HNE on protein adduction and cross-linking.

[12] = tested on: P19 neuroglial cultures; test: Cell death in P19 neuroglial cultures; type: cell-based; details: read-out: LC50 cell death
From the text: as §1

[13] = molecular target: bovine serum albumin (Bos taurus, UniProt P02769); test: Disappearance of free IsoK and HNE during incubation with bovine serum albumin (rate of adduction); type: biochemical
Procedure: Oxidation of AA in vitro produces both F2-IsoPs and IsoKs in nearly equivalent amounts. However, comparison of the formation of F2-IsoPs and IsoKs in vivo is more complex, because IsoKs rapidly adduct to lysyl residues on proteins. […] In striking contrast, approximately 50% of the HNE still remained in free form after 80 minutes.

[14] = alone, flecainide 1 μM, IsoK 10 μM

Chain of human cardiac Na channel (hH1, or SCN5A) (Q14524 whole entry): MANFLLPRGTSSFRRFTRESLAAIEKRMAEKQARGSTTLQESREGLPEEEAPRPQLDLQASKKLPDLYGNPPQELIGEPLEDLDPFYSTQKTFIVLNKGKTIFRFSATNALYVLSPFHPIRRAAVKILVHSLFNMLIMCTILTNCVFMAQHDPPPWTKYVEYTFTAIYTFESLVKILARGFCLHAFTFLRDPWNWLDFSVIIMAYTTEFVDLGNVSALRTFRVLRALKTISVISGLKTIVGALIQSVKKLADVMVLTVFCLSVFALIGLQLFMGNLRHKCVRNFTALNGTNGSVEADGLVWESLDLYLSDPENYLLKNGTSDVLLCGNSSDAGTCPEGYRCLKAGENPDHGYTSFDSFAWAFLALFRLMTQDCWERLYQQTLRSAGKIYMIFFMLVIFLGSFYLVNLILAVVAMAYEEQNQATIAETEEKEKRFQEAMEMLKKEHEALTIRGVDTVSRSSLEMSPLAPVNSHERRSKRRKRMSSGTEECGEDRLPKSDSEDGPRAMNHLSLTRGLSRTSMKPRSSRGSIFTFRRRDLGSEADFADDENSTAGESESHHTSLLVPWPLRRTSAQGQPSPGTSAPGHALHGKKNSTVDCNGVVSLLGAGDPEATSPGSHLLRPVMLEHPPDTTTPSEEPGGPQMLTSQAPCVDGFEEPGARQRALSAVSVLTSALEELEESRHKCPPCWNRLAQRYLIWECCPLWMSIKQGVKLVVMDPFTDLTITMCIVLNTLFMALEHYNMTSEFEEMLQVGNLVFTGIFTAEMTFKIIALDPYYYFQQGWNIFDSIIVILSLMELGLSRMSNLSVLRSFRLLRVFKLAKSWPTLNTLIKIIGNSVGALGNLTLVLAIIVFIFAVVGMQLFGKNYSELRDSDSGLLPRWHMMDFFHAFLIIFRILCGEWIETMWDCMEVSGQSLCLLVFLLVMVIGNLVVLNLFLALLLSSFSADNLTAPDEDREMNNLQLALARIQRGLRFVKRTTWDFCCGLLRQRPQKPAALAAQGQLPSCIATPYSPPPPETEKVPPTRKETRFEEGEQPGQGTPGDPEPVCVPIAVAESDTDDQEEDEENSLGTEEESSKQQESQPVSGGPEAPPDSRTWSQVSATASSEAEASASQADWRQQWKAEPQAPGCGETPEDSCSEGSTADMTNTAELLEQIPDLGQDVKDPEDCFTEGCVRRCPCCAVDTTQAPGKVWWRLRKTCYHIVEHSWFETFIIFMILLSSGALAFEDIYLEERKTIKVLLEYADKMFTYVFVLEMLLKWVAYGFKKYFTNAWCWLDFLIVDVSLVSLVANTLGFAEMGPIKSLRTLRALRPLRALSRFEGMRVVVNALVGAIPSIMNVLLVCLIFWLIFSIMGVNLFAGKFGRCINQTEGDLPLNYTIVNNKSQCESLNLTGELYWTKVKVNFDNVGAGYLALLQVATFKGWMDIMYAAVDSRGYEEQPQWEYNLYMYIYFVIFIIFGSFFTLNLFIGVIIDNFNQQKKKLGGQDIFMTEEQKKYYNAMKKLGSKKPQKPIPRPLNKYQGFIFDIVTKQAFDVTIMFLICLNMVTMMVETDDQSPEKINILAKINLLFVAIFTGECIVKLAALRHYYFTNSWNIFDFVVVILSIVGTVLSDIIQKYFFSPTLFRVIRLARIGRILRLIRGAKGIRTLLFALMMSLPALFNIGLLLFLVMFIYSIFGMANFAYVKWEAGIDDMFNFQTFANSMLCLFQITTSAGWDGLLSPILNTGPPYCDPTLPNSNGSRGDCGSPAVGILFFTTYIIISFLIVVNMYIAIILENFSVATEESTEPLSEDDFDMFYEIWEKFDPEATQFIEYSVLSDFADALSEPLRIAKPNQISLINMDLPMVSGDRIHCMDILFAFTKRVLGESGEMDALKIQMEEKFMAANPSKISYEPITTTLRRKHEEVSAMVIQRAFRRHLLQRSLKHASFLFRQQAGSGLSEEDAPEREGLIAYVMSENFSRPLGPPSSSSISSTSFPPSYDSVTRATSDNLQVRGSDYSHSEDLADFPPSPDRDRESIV
Chain of native Na+ channels in HL-1 cells (Q9JJV9 whole entry): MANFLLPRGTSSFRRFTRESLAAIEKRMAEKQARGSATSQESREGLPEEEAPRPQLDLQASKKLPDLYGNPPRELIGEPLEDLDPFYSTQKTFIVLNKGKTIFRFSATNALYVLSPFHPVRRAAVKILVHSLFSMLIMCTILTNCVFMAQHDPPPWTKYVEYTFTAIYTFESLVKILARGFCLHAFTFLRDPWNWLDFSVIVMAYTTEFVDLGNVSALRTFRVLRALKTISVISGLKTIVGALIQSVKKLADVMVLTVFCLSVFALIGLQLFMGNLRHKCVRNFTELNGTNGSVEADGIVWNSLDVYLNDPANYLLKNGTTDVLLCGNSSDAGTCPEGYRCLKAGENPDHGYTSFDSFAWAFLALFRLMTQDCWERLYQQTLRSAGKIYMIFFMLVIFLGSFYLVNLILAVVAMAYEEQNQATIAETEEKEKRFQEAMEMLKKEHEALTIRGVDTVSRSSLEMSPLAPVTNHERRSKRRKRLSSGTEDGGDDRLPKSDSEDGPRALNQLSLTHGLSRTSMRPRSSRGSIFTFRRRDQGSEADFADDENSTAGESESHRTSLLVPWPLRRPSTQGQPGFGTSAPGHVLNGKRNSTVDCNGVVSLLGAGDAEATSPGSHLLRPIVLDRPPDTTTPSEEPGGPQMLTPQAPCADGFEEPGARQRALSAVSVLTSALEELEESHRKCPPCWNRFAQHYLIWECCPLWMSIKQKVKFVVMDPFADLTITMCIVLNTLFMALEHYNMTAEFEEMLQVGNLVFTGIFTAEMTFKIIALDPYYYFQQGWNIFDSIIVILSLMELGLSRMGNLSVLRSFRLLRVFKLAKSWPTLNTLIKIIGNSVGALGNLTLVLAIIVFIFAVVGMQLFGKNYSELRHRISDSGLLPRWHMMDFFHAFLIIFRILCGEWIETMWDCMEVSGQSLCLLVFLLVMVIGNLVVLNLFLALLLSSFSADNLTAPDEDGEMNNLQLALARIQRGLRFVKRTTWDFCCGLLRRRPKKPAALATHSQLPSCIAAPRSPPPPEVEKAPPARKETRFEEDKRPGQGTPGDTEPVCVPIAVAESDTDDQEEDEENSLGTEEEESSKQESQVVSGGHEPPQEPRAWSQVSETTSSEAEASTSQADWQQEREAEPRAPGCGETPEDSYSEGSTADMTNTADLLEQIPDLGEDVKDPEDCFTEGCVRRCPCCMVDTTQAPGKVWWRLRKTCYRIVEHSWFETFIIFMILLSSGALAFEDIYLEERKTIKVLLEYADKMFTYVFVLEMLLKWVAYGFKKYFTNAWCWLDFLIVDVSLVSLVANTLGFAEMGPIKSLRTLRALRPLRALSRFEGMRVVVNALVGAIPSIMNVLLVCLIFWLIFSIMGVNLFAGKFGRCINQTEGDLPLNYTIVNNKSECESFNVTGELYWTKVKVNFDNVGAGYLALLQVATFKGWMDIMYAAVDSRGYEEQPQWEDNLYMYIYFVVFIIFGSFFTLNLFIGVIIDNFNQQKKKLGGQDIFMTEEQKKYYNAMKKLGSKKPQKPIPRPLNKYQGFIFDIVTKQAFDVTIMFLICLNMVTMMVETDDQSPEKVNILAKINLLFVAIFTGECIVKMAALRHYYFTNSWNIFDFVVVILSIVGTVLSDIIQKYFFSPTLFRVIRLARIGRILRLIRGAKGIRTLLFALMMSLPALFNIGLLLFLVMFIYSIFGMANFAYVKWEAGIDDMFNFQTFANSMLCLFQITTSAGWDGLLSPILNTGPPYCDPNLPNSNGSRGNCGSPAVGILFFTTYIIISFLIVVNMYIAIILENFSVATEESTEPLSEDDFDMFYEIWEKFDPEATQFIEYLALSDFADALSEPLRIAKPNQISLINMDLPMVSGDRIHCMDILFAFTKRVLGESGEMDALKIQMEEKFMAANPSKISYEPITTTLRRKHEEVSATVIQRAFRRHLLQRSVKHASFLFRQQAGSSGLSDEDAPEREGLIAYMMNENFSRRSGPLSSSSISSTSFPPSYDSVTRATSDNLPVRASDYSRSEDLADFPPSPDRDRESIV
Chain of bovine serum albumin (P02769 25-607): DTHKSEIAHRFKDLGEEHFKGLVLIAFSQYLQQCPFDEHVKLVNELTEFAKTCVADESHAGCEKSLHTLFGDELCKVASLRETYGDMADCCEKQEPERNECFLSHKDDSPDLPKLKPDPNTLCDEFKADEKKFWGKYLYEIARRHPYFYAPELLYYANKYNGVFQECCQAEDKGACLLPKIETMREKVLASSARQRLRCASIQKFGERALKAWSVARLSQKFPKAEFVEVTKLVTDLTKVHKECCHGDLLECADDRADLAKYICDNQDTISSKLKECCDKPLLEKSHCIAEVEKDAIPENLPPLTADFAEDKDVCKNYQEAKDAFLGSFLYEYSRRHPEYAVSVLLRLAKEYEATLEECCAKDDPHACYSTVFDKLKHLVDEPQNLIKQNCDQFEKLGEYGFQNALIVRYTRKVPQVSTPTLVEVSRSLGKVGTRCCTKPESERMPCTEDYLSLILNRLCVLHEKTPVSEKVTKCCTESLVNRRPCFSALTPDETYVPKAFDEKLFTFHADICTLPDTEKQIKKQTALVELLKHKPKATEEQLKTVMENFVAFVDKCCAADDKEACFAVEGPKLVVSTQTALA
Chain of ovalbumin (OVA) (P01012 whole entry, species assumed): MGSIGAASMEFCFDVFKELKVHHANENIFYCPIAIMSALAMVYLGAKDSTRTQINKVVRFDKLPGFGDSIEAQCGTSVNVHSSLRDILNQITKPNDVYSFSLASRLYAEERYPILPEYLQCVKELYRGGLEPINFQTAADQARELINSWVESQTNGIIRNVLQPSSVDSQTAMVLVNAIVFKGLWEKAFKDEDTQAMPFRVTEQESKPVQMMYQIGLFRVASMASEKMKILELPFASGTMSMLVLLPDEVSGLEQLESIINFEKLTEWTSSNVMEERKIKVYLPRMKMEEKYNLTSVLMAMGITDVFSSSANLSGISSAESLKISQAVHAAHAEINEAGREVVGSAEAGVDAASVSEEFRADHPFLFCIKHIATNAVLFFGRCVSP

## O=C(O)CCCC[C@@H]1CCSS1 (racemic) [lipoic acid]
[1]
  increase in F2-IsoPs esterified in the kidney: completely suppressed to below control levels
[2]
  cognitive impairment: effective in improving cognitive impairment

## O=C(NCC1CCCCN1)c1cc(OCC(F)(F)F)ccc1OCC(F)(F)F (centres unmarked) [flecainide]
[3]
  P500/P1 (use-dependent block): 0.92±0.03
[4]
  mortality increase: three-fold
[5]
  A1 (amplitude of the fast component, recovery from inactivation): 0.80 ± 0.04
  A2 (amplitude of the slow component, recovery from inactivation): 0.20 ± 0.04
[5]; [14]
  P500/P1 (use-dependence): 0.87±0.04
[5]; flecainide 1 μM
  V1/2 voltage-dependence of inactivation (availability): −86.4±2.1 mV
[5]; WT, flecainide 10 μM, IsoK 10 μM
  P500/P1 (use-dependent block): 0.38±0.05
[5]; flecainide 1 μM in the presence of IsoK 10 μM
  V1/2 voltage-dependence of inactivation: −99.3±2.3 mV

## CC(C)(C)OO [t-BHP, tert-butyl hydroperoxide]
[6]
  Na channel availability: reduced Na channel availability
  V1/2 availability of native Na+ channels: −82.8±1.7 mV
[7]
  formation of lipid peroxidation products: abundant quantities of F2-IsoPs and IsoK

## E2-isoketal
[8]
  PHF-tau formation (Alz50): strong Alz50 immunoreactivity
[9]
  IC50: 330 nM
[6]
  Na channel availability: reduced Na channel availability
  V1/2 availability of native Na+ channels: −82.0±1.7 mV
[10]
  IC50: 2100 nM
[11]
  cross-linking of ovalbumin: extensive cross-linked high molecular weight oligimers
[5]
  A1 (amplitude of the fast component, recovery from inactivation): 0.79 ± 0.04
  A2 (amplitude of the slow component, recovery from inactivation): 0.21 ± 0.04
  INa decay: speeded the rate Of INa decay
  V1/2 voltage-dependence of activation: −41.6±1.5 mV
[5]; [14]
  P500/P1 (use-dependence): 0.89±0.02
[5]; in the presence of flecainide 1 μM
  P500/P1 (use-dependence): 0.66±0.03
[5]; flecainide 1 μM
  V1/2 voltage-dependence of inactivation (availability): −96.4±1.1 mV
[5]; over a range of membrane potentials
  activation of sodium channels: no effect on the activation
[12]
  CC50: 670 nM
[13]
  adduction to albumin: essentially complete within a few minutes
